Data from publication PMC12251482, “Floridoside Phosphotriester Derivatives: Synthesis and Inhibition of Human Neutrophils’ Oxidative Burst” (Molecules, 2025).

Assays:
[1] = tested on: PMA-stimulated human neutrophils; assay: PMA-induced neutrophils' oxidative burst, oxidation of luminol (chemiluminescence); format: cell-based
Description: Luminol is easily oxidized by reactive species produced during neutrophils’ oxidative burst, resulting in a chemiluminescent signal. The effect of the compounds under study on the modulation of neutrophil oxidative burst was determined after stimulation with PMA, a known neutrophil activator, because its effect is closely analogous to that obtained during the phagocytic process. Following a previously reported method, in a 96-well plate, neutrophils were incubated in the dark at 37 °C for 5 min with luminol (500 μM) and the tested compounds (10–100 μM) or DMSO (final concentration 4%). Quercetin, a flavonoid known for its anti-inflammatory activity (0.3–5.0 μM), and the inhibitor of NADPH oxidase, DPI (0.01–10 μM), were used as controls. After incubation, PMA (160 nM) was added, and the chemiluminescence was measured in a microplate reader (Synergy HT, BIO-TEK Instruments, Inc., Winooski, VT, USA). Kinetic readings were initiated immediately after cell stimulation. Measurements were taken at the peak of the curve. […] Effects are expressed as the inhibition percentage of luminol oxidation. The results obtained represent at least three independent experiments. […]
3.4 Evaluation of neutrophils' oxidative burst
3.4.1 Oxidation of luminol
Luminol is easily oxidized by reactive species produced during neutrophils’ oxidative burst, resulting in a chemiluminescent signal. The eﬀect of the compounds under study on the modulation of neutrophil oxidative burst was determined after stimulation with PMA, a known neutrophil activator, because its eﬀect is closely analogous to that obtained during the phagocytic process. Following a previously reported method, in a 96-well plate, neutrophils were incubated in the dark at 37 °C for 5 minutes with luminol (500 µM) and the tested compounds (10 - 100 µM) or DMSO (ﬁnal concentration 4%). Quercetin, a ﬂavonoid known for its anti-inﬂammatory activity (0.3 - 5.0 µM), and the inhibitor of NADPH oxidase, DPI (0.01 - 10 µM), were used as positive and negative controls, respectively. After incubation, PMA (160 nM) was added, and the chemiluminescence was measured in a microplate reader (Synergy HT, BIO-TEK Instruments, Inc., Winooski, VT, USA). Kinetic readings were initiated immediately after cell stimulation. Measurements were taken at the […]
peak of the curve. […] Eﬀects are expressed as the inhibition percentage of luminol oxidation. The obtained results represent at least three independent experiments.

[2] = tested on: human neutrophils; assay: Neutrophils' apoptosis versus necrosis, Annexin V/PI flow cytometry; format: cell-based; conditions: for Cytotoxicity in neutrophils: 45 min; for Induction of late apoptosis in neutrophils: Figure S154
Description: (§1) The effect of the compounds under study on neutrophil viability was evaluated using flow cytometry. This assessment involved staining with Annexin V (AV) and propidium iodide (PI) from the BD Pharmingen™ FITC Annexin V Apoptosis Detection Kit, following the manufacturer’s protocol. […] Afterwards, the content of each well was transferred to a conical microtube and centrifuged at 400× g, at 20 °C, for 5 min. The neutrophils’ pellets were resuspended in PBS and centrifuged again under the previous conditions. The supernatant was removed, and the solution of Annexin V and PI from the kit was added, resuspending the pellet. The neutrophils were incubated in the dark at room temperature for 15 min and then diluted (dilution factor = 6) with the diluted binding buffer. […] In the flow cytometer, the fluorescence signal of at least 10,000 neutrophils per sample was collected in logarithmic mode and followed in channels 1 and 3. A polygon gate, corresponding to the neutrophil’s population, was drawn according to the light-scattering properties of neutrophils in a forward versus scatter plot. Thus, debris and other blood cells were unaccounted for in the samples. The green fluorescence corresponding to Annexin V was monitored in channel 1 and plotted as a histogram of FL1 staining, whereas the fluorescence corresponding to PI was monitored in channel 3 and plotted in the same histogram as FL3 staining. Neutrophils’ cell death was expressed as a relative percentage of viable, apoptotic, late apoptotic, and necrotic cells compared to a negative control (untreated cells).
(§2) The eﬀect of the compounds under study on neutrophil viability was evaluated using ﬂow cytometry.
(§3) This assessment involved staining with Annexin V (AV) and propidium iodide (PI) from the BD Pharmingen™ FITC Annexin V Apoptosis Detection Kit, following the manufacturer's protocol. Neutrophils (1 x10^6 cells/mL) were incubated in a 24-well plate in the dark at 37 °C for 45 minutes with the positive control (Triton X-100, […]
(§4) Afterwards, the content of each well was transferred to a conical microtube and centrifuged at 400g, at 20 °C, for 5 minutes. The neutrophils’ pellets were resuspended in PBS and centrifuged again under the previous conditions. The supernatant was removed, and the solution of Annexin V and PI from the kit was added, resuspending the pellet. The neutrophils were incubated in the dark at room temperature for 15 minutes and then diluted (dilution factor = 6) with the diluted binding buﬀer. The measurements were performed in a n Accuri C6 ﬂow cytometer (BD, Becton, Dickinson and Company, Franklin Lakes, NJ, USA), and the results were treated with BD Accuri™ C6 software. In the ﬂow cytometer, the ﬂuorescence signal of at least 10,000 neutrophils per sample was collected in logarithmic mode and followed in channels 1 and 3. A polygon gate, corresponding to the neutrophil’s population, was drawn according to the light-scattering properties of neutrophils in a forward vs scatter plot. Thus, debris and other blood cells were unaccounted for in the samples.
(§5) The green ﬂuorescence corresponding to Annexin V was monitored in channel 1 and plotted as a histogram of FL1 staining, whereas the ﬂuorescence corresponding to PI was monitored in channel 3 and plotted in the same histogram as FL3 staining. Neutrophils’ cell death was expressed as a relative percentage of viable, apoptotic, late apoptotic, and necrotic cells compared to a negative control (untreated cells). […]

[3] = as above; format: cell-based, human; conditions: human; 50 μM; representative plot, Figure 2; read-out: Q2-LL, viable cells (AV−/PI−)
Description: as §1, §2, §3, §4, §5

[4] = tested concentrations, up to 100 μM

3-Hydroxy-2-(galactopyranosyl)propyl dodecanoate [Compound 1e]
IC50 ([1]; PMA 160 nM, mean ± SEM): 83 ± 7 µM | Cytotoxicity in neutrophils ([2]; 50 μM): no cytotoxicity | Cytotoxicity in neutrophils [2, 4]: non-cytotoxic

3-Hydroxy-2-galactopyranosylpropyl dioctyl phosphate [Compound 1b]
Luminol: highest obtained % of inhibition ([1]; at 25 µM, PMA 160 nM, mean ± SEM): 36 ± 9% ^25µM | Cytotoxicity in neutrophils ([2]; 25 μM): did not exhibit significant cytotoxicity | Cytotoxicity in neutrophils ([2]; 50 μM): cytotoxic effects | Induction of late apoptosis in neutrophils ([2]; 50 μM): induce late apoptosis

OCC(CO)OC1OC(CO)C(O)C(O)C1O [Compound 1a, 2-O-D-(galactopyranosyl)glycerol]
inhibition at 100 µM ([1]; Homo sapiens, Neutrophil, at 100 µM, PMA 160 nM, mean ± SEM, read-out: Luminol: highest obtained % of inhibition): 34 ± 7% | Effect on oxidative burst measured by luminol (in words) ([1]; PMA-induced): no relevant activity | Cytotoxicity in neutrophils [2, 4]: no cytotoxic activity

CCCCCCCCCCCC(=O)OCC(CO)OC1OC(COP(=O)(OCCN)OCCN)C(O)C(O)C1O (stereo not drawn) [Compound 1h, 2-(6-(bis(2-Aminoethoxy))phosphoryl)galactopyranosyl-3-hydroxypropyl dodecanoate]
inhibition at 25 µM ([1]; Homo sapiens, Neutrophil, at 25 µM, PMA 160 nM, mean ± SEM, read-out: Luminol: highest obtained % of inhibition): 27 ± 15% | viability at 45 min, 50 µM [3]: 53% | Cytotoxicity in neutrophils ([2]; 25 μM): did not exhibit significant cytotoxicity | Cytotoxicity in neutrophils ([2]; 50 μM): cytotoxic effects | Induction of late apoptosis in neutrophils ([2]; 50 μM): induce late apoptosis
